Results on one compound are retold here after patent publication US20120021010A1, “ANTIPLATELET AGENT AND METHODS OF USING THE SAME” (University of Calcutta, priority 2010, published 2012).

The assay relates to platelets. Description: ADP-induced platelet aggregation, chronolog optical aggregometry. The assay is classed as cell-based, human. The note with it: platelets of patient treated with clopidogrel; inset of FIG. 3C. On the procedure: In this example, platelet aggregation in the presence of SPIONs and various agonists was examined. The study was carried out using chronolog optical aggregometry.
FIGS. 2A and 2B respectively represent aggregometric results in presence of the agonists arachidonic acid (0.5 mM) and ADP (10 μM). Arachidonic acid is the main target for the antiplatelet drug aspirin and ADP is the main target for the antiplatelet drug clopidogrel. […] Thus, SPIONs cause no change in ADP- and arachidonic acid-induced aggregation of platelets from normal healthy individuals. The 85% to 95% aggregation increase in FIG. 2B can be ignored as the fractional increase is insignificant.

For the compound `COC(=O)[C@H](c1ccccc1Cl)N1CCc2sccc2C1` [clopidogrel], the “ADP-induced platelet aggregation in a patient treated with clopidogrel” value was “ADP cannot induce aggregation”.
